Assays:
human recombinant HDAC6 = biological target: T1, human recombinant HDAC6 (Homo sapiens, UniProt Q9UBN7); format: biochemical; conditions: for LE, HDAC6 (ligand efficiency): from IC50 in place of Kd, T = 310 K; for SF 1/6, selectivity factor for HDAC6 over HDAC1: IC50(HDAC1)/IC50(HDAC6); for HDAC6 inhibition: concentrations up to 25 μM, data not shown
T1 sequence (Q9UBN7 1-1215): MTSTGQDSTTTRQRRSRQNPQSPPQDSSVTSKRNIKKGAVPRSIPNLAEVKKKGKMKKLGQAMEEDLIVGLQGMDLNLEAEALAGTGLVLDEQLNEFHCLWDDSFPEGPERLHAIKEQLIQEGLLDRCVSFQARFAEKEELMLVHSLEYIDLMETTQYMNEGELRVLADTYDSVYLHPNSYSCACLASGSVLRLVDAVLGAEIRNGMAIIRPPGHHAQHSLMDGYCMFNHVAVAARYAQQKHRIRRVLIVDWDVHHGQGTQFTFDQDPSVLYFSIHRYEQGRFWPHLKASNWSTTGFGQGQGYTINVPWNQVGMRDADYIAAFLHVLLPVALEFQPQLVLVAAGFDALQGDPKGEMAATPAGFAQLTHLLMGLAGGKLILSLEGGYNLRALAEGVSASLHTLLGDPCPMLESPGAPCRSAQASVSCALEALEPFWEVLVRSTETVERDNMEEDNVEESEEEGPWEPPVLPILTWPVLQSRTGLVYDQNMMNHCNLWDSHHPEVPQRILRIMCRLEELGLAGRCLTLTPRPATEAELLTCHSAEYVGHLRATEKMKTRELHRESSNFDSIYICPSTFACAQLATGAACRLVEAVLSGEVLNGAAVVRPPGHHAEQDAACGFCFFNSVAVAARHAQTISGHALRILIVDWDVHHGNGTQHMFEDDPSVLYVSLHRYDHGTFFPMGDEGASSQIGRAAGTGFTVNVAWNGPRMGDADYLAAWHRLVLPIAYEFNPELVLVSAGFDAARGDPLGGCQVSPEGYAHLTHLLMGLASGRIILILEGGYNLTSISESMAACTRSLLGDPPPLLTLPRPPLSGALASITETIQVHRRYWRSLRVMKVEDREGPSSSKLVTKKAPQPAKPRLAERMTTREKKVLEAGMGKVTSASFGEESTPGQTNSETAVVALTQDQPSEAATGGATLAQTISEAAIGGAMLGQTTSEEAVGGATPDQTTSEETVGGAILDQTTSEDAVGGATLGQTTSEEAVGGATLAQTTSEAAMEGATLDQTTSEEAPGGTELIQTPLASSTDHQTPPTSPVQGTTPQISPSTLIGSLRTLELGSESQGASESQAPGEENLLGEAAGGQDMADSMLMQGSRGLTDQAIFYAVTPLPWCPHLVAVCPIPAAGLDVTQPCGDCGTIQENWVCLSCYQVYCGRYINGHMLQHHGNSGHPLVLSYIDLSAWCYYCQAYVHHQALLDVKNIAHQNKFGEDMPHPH

human recombinant HDAC1 = human recombinant HDAC1 (Homo sapiens, UniProt Q13547); test: In vitro HDAC1 inhibition, fluorogenic ZMAL assay; format: biochemical
human recombinant HDAC1, sequence (Q13547 whole entry): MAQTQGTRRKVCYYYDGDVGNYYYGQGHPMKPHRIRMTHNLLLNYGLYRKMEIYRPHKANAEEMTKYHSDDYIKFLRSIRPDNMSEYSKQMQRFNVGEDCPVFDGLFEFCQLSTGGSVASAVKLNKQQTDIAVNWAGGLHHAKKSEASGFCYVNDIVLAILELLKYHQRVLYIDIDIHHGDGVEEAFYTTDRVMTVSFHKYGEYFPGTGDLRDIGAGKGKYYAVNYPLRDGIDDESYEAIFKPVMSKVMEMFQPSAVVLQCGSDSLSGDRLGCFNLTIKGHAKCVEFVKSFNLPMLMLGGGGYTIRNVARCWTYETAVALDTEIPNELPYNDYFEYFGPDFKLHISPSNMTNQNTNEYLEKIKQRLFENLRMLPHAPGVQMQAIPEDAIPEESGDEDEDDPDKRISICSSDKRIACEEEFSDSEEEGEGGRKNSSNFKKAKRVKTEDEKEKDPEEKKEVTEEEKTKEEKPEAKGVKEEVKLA

hHDAC6 = conditions: cited from earlier work
[1] = Metabolic stability in human liver microsomes; format: in vitro ADME; conditions: for half-life at 2 μM: human, liver microsomes
HepaRG cells = test: CellTiter-Blue cell viability assay, HepaRG; conditions: 24 h of treatment, highest tested concentration (100 μM)
HUH7 cells = conditions: HUH7, 10 and 100 μM, 72 h
T24 cells = conditions: T24, 10 and 100 μM, 72 h
MDA-MB-231 cells = conditions: MDA-MB-231, 10 and 100 μM, 72 h

SMILES | LE, HDAC6 (ligand efficiency) (human recombinant HDAC6) | IC50 (human recombinant HDAC1) [µM] | other results
O=C(NO)c1ccc(CN2c3ccccc3Sc3ccc(C(F)(F)F)cc32)cc1 [Compound 7d, N-Hydroxy-4-{[2-(trifluoromethyl)-10H-phenothiazin-10-yl]methyl}benzamide] | 0.37 (kcal/mol)/non-H-Atom | – | –
O=C(NO)c1ccc(CN2c3ccccc3Sc3cccc(Cl)c32)cc1 [Compound 7c, 4-[(1-Chloro-10H-phenothiazin-10-yl)methyl]-N-hydroxybenzamide] | 0.43 (kcal/mol)/non-H-Atom | – | –
O=C(NO)c1ccc(CN2c3ccccc3Sc3nccnc32)cc1 [Compound 7k, 4-[(10H-Benzo[b]pyrazino[2,3-e][1,4]thiazin-10-yl)methyl]-N-hydroxybenzamide] | 0.44 (kcal/mol)/non-H-Atom | 3.84 ± 0.13 | SF 1/6, selectivity factor for HDAC6 over HDAC1 (human recombinant HDAC6): 226
O=C(NO)c1ccc(CC(=O)N(CCO)c2ccccc2)cc1 [HPOB, N-hydroxy-4-(2-[(2-hydroxyethyl)(phenyl)amino]-2-oxoethyl)benzamide] | – | – | selectivity over HDAC1 (hHDAC6): ~ 50 fold
O=C(NO)c1ccc(CN2c3ccccc3Sc3ccccc32)cc1 [Compound 1a, 4-[(10H-Phenothiazin-10-yl)methyl]-N-hydroxybenzamide] | – | – | human liver microsomal stability (in words) [1]: moderate stability; compound remaining ([1]; human liver microsomes, after 40 min incubation): about 77%; half-life at 2 μM [1]: > 40 min; Viability of HepaRG cells (HepaRG cells): not affected
O=C(CCCCCCNC(=O)c1cnc(N(c2ccccc2)c2ccccc2)nc1)NO [Ricolinostat] | – | – | selectivity for HDAC6 relative to class I HDACs (hHDAC6; introduction, literature statement): at least 10 fold
O=C(NO)c1ccc(CN2c3ccncc3Sc3ccncc32)cc1 [Compound 7m, 4-[(10H-Dipyrido[3,4-b:3’,4’-e][1,4]thiazin-10-yl)methyl]-N-hydroxybenzamide] | 0.46 (kcal/mol)/non-H-Atom | 0.79 ± 0.14 | –
O=C(NO)c1ccc(CN2c3ccccc3Sc3ccncc32)cc1 [Compound 7j, 4-[(10H-Benzo[b]pyrido[3,4-e][1,4]thiazin-10-yl)methyl]-N-hydroxybenzamide] | 0.46 (kcal/mol)/non-H-Atom | 1.25 ± 0.01 | SF 1/6, selectivity factor for HDAC6 over HDAC1 (human recombinant HDAC6): 179
O=C(NO)c1ccc(N2c3ccccc3Sc3ccccc32)cc1 [Compound 18, N-Hydroxy-4-(10H-phenothiazin-10-yl)benzamide] | 0.33 (kcal/mol)/non-H-Atom | 5.87 ± 0.71 | SF 1/6, selectivity factor for HDAC6 over HDAC1 (human recombinant HDAC6): 2
Cc1nc2c(s1)Sc1ccccc1N2Cc1ccc(C(=O)NO)cc1 [Compound 7o, N-Hydroxy-4-[(2-methyl-4H-benzo[b]thiazolo[4,5-e][1,4]thiazin-4-yl)methyl]benzamide] | 0.42 (kcal/mol)/non-H-Atom | 5.05 ± 0.75 | SF 1/6, selectivity factor for HDAC6 over HDAC1 (human recombinant HDAC6): 136
O=C(NO)c1ccc(CN2N=C(Cl)C=C3Sc4ccccc4N=C32)cc1 [Compound 10q, 4-[(3-Chloro-1H-benzo[b]pyridazino[3,4-e][1,4]thiazin-1-yl)methyl]-N-hydroxybenzamide] | 0.38 (kcal/mol)/non-H-Atom | 4.58 ± 0.73 | –
CN1CCc2c(n(Cc3ccc(C(=O)NO)cc3)c3ccccc23)C1 [Regioisomer of Tubastatin] | – | – | SF 1/6, selectivity factor for HDAC6 over HDAC1 (hHDAC6; from published IC50 values): 3700
Cn1c(=O)c2c(ncn2C)n(C)c1=O [Caffeine, reference compound] | – | – | half-life at 2 μM [1]: > 40 min
CON(C)C(=O)c1ccc(CN2c3ccccc3Sc3ccccc32)cc1 [Compound 23, 4-[(10H-Phenothiazin-10-yl)methyl]-N-methoxy-N-methylbenzamide] | – | – | activity on HDAC1 (in words) (human recombinant HDAC1): completely inactive; activity on HDAC6 (in words) (human recombinant HDAC6): completely inactive
CN1CCC2=C(C1)N(Cc1ccc(C(=O)NO)cc1)c1ccccc1S2 [Compound 14j, N-Hydroxy-4-[(2-methyl-1,2,3,4-tetrahydro-10H-benzo[b]pyrido[3,4-e][1,4]thiazin-10-yl)methyl]benzamide] | 0.41 (kcal/mol)/non-H-Atom | – | –
COc1ccc2c(c1)N(Cc1ccc(C(=O)NO)cc1)c1ccccc1S2 [Compound 7g, N-Hydroxy-4-[(2-methoxy-10H-phenothiazin-10-yl)methyl]benzamide] | 0.42 (kcal/mol)/non-H-Atom | – | –
O=C(NO)c1ccc(CN2c3ccccc3Sc3cccnc32)cc1 [Compound 7i, 4-[(10H-Benzo[b]pyrido[2,3-e][1,4]thiazin-10-yl)methyl]-N-hydroxybenzamide] | – | – | effect on proliferation (in words) (HUH7 cells): inhibited proliferation; human liver microsomal stability (in words) [1]: metabolically quite stable; half-life at 2 μM [1]: > 40 min; Viability of HepaRG cells (HepaRG cells): not affected; effect on proliferation (in words) (T24 cells): inhibited proliferation; effect on proliferation (in words) (MDA-MB-231 cells): inhibited proliferation
O=C(NO)c1ccc(CN2c3ccccc3[S+]([O-])c3ccccc32)cc1 [Compound 7e, N-Hydroxy-4-[(5-oxido-10H-phenothiazin-10-yl)methyl]benzamide] | 0.39 (kcal/mol)/non-H-Atom | – | –
O=C(O)c1ccc(CN2c3ccccc3Sc3ccccc32)cc1 [Compound 5a, 4-[(10H-Phenothiazin-10-yl)methyl]benzoic acid] | – | – | activity on HDAC6 (in words) (human recombinant HDAC6): inactive; HDAC6 inhibition (human recombinant HDAC6): did not show noteworthy HDAC6 inhibition
O=C(NO)c1ccc(CN2c3ccccc3Sc3cc(Cl)nnc32)cc1 [Compound 7q, 4-[(3-Chloro-10H-benzo[b]pyridazino[3,4-e][1,4]thiazin-10-yl)methyl]-N-hydroxybenzamide] | 0.42 (kcal/mol)/non-H-Atom | 1.08 ± 0.04 | –
O=C(NO)c1ccc(CCN2c3ccccc3Sc3ccccc32)cc1 [Compound 22, 4-[2-(10H-Phenothiazin-10-yl)ethyl]-N-hydroxybenzamide] | 0.37 (kcal/mol)/non-H-Atom | 11.7 ± 2.61 | SF 1/6, selectivity factor for HDAC6 over HDAC1 (human recombinant HDAC6): 86
CCCCN(Cc1ccc(C(=O)NO)cc1)C(=O)Nc1ccccc1 [Nexturastat A] | – | – | selectivity over HDAC1 (hHDAC6): ~ 600 fold
O=C(NO)c1ccc(CN2c3ccccc3Sc3ccc(Cl)cc32)cc1 [Compound 7f, 4-[(2-Chloro-10H-phenothiazin-10-yl)methyl]-N-hydroxybenzamide] | 0.43 (kcal/mol)/non-H-Atom | – | –
CCSc1ccc2c(c1)N(Cc1ccc(C(=O)NO)cc1)c1ccccc1S2 [Compound 7h, 4-{[2-(Ethylthio)-10H-phenothiazin-10-yl]methyl}-N-hydroxybenzamide] | 0.38 (kcal/mol)/non-H-Atom | – | –
O=C(NO)c1ccc(CN2N=CC=C3Sc4ccccc4N=C32)cc1 [Compound 10p, 4-[(1H-Benzo[b]pyridazino[3,4-e][1,4]thiazin-1-yl)methyl]-N-hydroxybenzamide] | 0.44 (kcal/mol)/non-H-Atom | 0.75 ± 0.04 | –
O=C(NO)c1ccc(CN2c3ccccc3Sc3ccnnc32)cc1 [Compound 7p, 4-[(10H-Benzo[b]pyridazino[3,4-e][1,4]thiazin-10-yl)methyl]-N-hydroxybenzamide] | 0.45 (kcal/mol)/non-H-Atom | 1.06 ± 0.08 | –
O=C(O)c1ccc(CN2c3ccncc3Sc3ncccc32)cc1 [Compound 5n, 4-[(5H-Dipyrido[2,3-b:4’,3’-e][1,4]thiazin-5-yl)methyl]benzoic acid] | – | – | activity on HDAC6 (in words) (human recombinant HDAC6): inactive; HDAC6 inhibition (human recombinant HDAC6): did not show noteworthy HDAC6 inhibition
O=C(NO)c1ccc(CN2c3cccnc3Sc3cccnc32)cc1 [Compound 7l, 4-[(10H-Dipyrido[2,3-b:2’,3’-e][1,4]thiazin-10-yl)methyl]-N-hydroxybenzamide] | 0.45 (kcal/mol)/non-H-Atom | 3.39 ± 0.23 | SF 1/6, selectivity factor for HDAC6 over HDAC1 (human recombinant HDAC6): 242

— publication PMC6519732 (Journal of medicinal chemistry, 2019)
